{"source": "patent US20050272055A1", "about": "(priority 2000, published 2005)", "key": {"human lymphoid cells": {"system": "human lymphoid cells", "type": "cell-based"}, "TNF-α": {"system": "TNF-α", "type": "cell-based, human"}, "CD69": {"system": "CD69", "type": "cell-based, human"}, "piglets [1]": {"system": "piglets", "details": "in vivo"}, "piglets [2]": {"system": "piglets", "parameters": "species or system Yorkshire piglets", "details": "in vivo"}}, "note": "“Also recorded” adds a separate entry of the source."}
{"molecule": "COc1ccc2c(c[n+](C)c3c4cc5c(cc4ccc23)OCO5)c1OC", "note": "[Chelerythrine]", "values": [{"measurement": "effect on SEB-induced proliferation", "setting": "human lymphoid cells", "value": "effectively blocked"}, {"measurement": "effect on SEB-induced TNF-alpha production", "setting": "TNF-α", "value": "blocked production of TNF-α"}]}
{"molecule": "C[S+]([O-])c1ccc(-c2nc(-c3ccncc3)c(-c3ccc(F)cc3)[nH]2)cc1", "note": "(stereo not shown) [P-38 inhibitor]", "values": [{"measurement": "effect on SEB-induced proliferation", "setting": "human lymphoid cells", "value": "clearly inhibited"}, {"measurement": "effect on SEB induction of CD69", "setting": "CD69", "value": "clearly blocked"}, {"measurement": "effect on induction of the TNF-α gene by SEB", "setting": "TNF-α", "value": "brought down back to control levels"}]}
{"molecule": "CN1C2CCCC1CC(NC(=O)c1nn(C)c3ccccc13)C2", "note": "(stereo not shown) [Kytril]", "values": [{"measurement": "diarrhea", "setting": "piglets [1]", "value": "diarrhea was stopped"}, {"measurement": "effectiveness as 5-HT receptor blockers against SEB-induced incapacitation", "setting": "piglets [1]", "value": "effective"}, {"measurement": "symptoms caused by increase in serotonin levels", "setting": "piglets [1]", "value": "can block the symptoms"}]}
{"molecule": "CC(=O)CCCCn1c(=O)c2c(ncn2C)n(C)c1=O", "note": "[Pentoxifylline]", "values": [{"measurement": "animals showing this pathology", "setting": "piglets [2]", "value": "3/3"}, {"measurement": "animals survived after the treatment", "setting": "piglets [2]", "value": "3 out of 3"}, {"measurement": "animals with moderate pathology", "setting": "piglets [2]", "value": "2/3"}, {"measurement": "animals worse-off, similar to SEB control", "setting": "piglets [2]", "value": "1/3"}, {"measurement": "gross pathology findings", "setting": "piglets [2]", "value": "No perirenal or mesenteric edema, though there is mesenteric lymphadenopathy"}, {"measurement": "pathology", "setting": "piglets [2]", "value": "Mild pathology; also recorded: Moderate pathology"}, {"measurement": "time post exposure to SEB up to which it works well", "setting": "piglets [2]", "value": "up to 4 hours"}]}
{"molecule": "O=c1c(-c2ccc(O)cc2)coc2cc(O[C@@H]3O[C@H](CO)[C@@H](O)[C@H](O)[C@H]3O)cc(O)c12", "note": "[Genistin]", "values": [{"measurement": "animals showing this outcome", "setting": "piglets [2]", "value": "2/2"}, {"measurement": "changes in toxin-induced symptoms compared to the untreated controls", "setting": "piglets [2]", "value": "did not show any significant changes"}, {"measurement": "pathology versus SEB controls", "setting": "piglets [2]", "value": "No discernable change in pathology"}]}
{"molecule": "CO[C@H]1[C@@H](OC)C[C@H](C)[C@@H](OC)C2=CC(=O)C=C(NC(=O)/C(C)=C/C=C\\[C@H](OC)[C@@H](OC(N)=O)/C(C)=C/[C@@H]1C)C2=O", "note": "[Herbimycin]", "values": [{"measurement": "animals showing this outcome", "setting": "piglets [2]", "value": "2/2"}, {"measurement": "changes in toxin-induced symptoms compared to the untreated controls", "setting": "piglets [2]", "value": "did not show any significant changes"}, {"measurement": "pathology versus SEB controls", "setting": "piglets [2]", "value": "No discernable change in pathology"}, {"measurement": "rescuing the animals", "setting": "piglets [2]", "value": "partially effective"}]}
{"molecule": "1,2,3,9-tetrahydro-9-methyl-3-[(2-methyl-1H-imidazol-1-yl)]4H-carbazol-4-one,monohychloride, dehydrate [Zofran]", "values": [{"measurement": "BP-24 h (systolic blood pressure)", "setting": "piglets [1]", "value": "50-60"}, {"measurement": "BP-48 h (systolic blood pressure)", "setting": "piglets [1]", "value": "50-65"}, {"measurement": "Blood Gases", "setting": "piglets [1]", "value": "norm"}, {"measurement": "Temp-24 h", "setting": "piglets [1]", "value": "101-103°"}, {"measurement": "Temp-48 h", "setting": "piglets [1]", "value": "100-103°"}, {"measurement": "blood pressure levels in treated and untreated animals", "setting": "piglets [1]", "value": "no change in the blood pressure"}, {"measurement": "cytokine surge", "setting": "piglets [1]", "value": "blocks the cytokine surge"}, {"measurement": "diarrhea", "setting": "piglets [1]", "value": "diarrhea was stopped"}, {"measurement": "effectiveness as 5-HT receptor blockers against SEB-induced incapacitation", "setting": "piglets [1]", "value": "effective"}, {"measurement": "emesis", "setting": "piglets [1]", "value": "recovered from emesis"}, {"measurement": "symptoms caused by increase in serotonin levels", "setting": "piglets [1]", "value": "can block the symptoms"}, {"measurement": "temperature", "setting": "piglets [1]", "value": "slight improvement in lowering the temperature"}]}
